We go through 1 compound from paper PMC8571951, “An activity‐based bioprobe differentiates a novel small molecule inhibitor from a LOXL2 antibody and provides renewed promise for anti‐fibrotic therapeutic strategies” (Clinical and Translational Medicine, 2021).

As usually defined, the IC50 is the concentration that gives 50% inhibition.

The structures appear in SMILES notation.

Data set [1] deals with T1, native LOXL2 protein in human plasma (Homo sapiens, UniProt Q9Y4K0).
T1 construct: from tissue; host or cells: human plasma (activity) and human serum (protein concentration) from clinical trial subjects
T1 sequence (Q9Y4K0 26-774): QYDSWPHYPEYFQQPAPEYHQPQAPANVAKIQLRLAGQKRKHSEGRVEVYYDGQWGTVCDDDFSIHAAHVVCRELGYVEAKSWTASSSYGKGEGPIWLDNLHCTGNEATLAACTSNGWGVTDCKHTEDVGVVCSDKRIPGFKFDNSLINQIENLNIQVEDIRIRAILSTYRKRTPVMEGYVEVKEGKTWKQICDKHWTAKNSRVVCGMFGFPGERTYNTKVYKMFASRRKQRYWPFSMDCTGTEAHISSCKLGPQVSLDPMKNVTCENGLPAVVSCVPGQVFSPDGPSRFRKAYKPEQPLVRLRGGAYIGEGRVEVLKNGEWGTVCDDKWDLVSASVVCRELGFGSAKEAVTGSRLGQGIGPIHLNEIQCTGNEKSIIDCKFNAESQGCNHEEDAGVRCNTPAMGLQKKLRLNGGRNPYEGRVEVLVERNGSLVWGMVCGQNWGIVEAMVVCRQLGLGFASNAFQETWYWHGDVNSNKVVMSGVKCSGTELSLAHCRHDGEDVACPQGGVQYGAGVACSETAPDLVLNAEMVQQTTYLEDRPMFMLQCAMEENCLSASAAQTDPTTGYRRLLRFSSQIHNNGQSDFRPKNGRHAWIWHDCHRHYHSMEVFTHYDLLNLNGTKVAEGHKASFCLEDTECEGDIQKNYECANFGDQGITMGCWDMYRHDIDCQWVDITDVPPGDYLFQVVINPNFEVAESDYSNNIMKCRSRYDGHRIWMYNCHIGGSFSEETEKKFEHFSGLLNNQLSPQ
Briefly: PXS-5878/Simoa platform, residual LOXL2 activity in human plasma. The settings on record: human plasma incubated 30 min; read-out: IC50, inhibition of native LOXL2 in human plasma. In kind it is biochemical. The method, then: FIGURE 2 Characteristics of PXS‐5338 and inhibition of lysyl oxidase‐like 2 (LOXL2) enzymatic activity in vitro and in vivo. (A) Chemical structure of PXS‐5338. […] (B) Tissue levels of PXS‐5338 measured 1 and 4 h after a single oral dose of 30 mg/kg in the rat. […] Average data from three different animals. (C) Concentration‐dependent inhibition of native […] LOX and rh LOXL1‐4 in a standard Amplex Red assay with 30 min pre‐incubation; n ≥3 independent experiments, standard error of mean (SEM). (D) PXS‐5338 inhibits rh LOXL2 in a time‐dependent manner, with increasing potency observed upon longer incubation with the enzyme. LOXL2 activity data devised from Amplex Red assay using putrescine as substrate and varying pre‐incubation times; n ≥3 independent experiments, standard error of mean (SEM). […] AB0023 and the corresponding isotype control antibody GS834298 were kindly provided by Gilead. Concentration‐response curves for the pan‐LOX inhibitor BAPN and LOXL2‐selective inhibitor PXS‐5338 are included for comparison. Data represented as mean ± SD with n = 5/concentration. […] To enable translation of preclinical data into the clinic, human plasma was incubated with different concentrations of PXS‐5338 for 30 min and the PXS‐5878/Simoa® platform used to measure the residual activity. […]

The nature of data set [2]: Pharmacokinetic profile in healthy human males. In kind it is in vivo. As for the experimental part: FIGURE 3 Inhibition of human lysyl oxidase‐like 2 (LOXL2) enzymatic activity by PXS‐5338 in clinical trials. (A) LOXL2 protein concentration in human serum is fairly constant over 24 h. Protein concentrations normalised to pre‐dose levels are plotted over time in healthy subjects treated with different doses (placebo, 100, 200 and 400 mg) of PXS‐5338. Mean ± SD with n = 6/time point. Phase 1 study with healthy male volunteers, ANZCTR ACTRN12617001444370. Legend of (A) also applies to (B) and (C). (B) Dose‐dependent inhibition of LOXL2 in plasma following a single oral dose of 100, 200 mg or 400 mg PXS‐5338. PXS‐5878/Simoa® platform used to measure the residual activity. Mean ± SD with n = 6/time point. (C) Pharmacokinetic (PK) profile of PXS‐5338 in healthy human males. […] (D) Correlation between LOXL2 protein concentration versus % inhibition. Activity data normalised to pre‐dose value.

Consider `CC(C)c1c(Cc2ccc(S(C)(=O)=O)nc2)c2ncccc2n1C/C(F)=C/CN` [PXS‐5338], for which the IC50 in data set [1] is 37 nM. Further, in data set [2], the “Compound half-life in humans” value was “prolonged compound half‐life”.
